Read-outs that look alike come from different tables or passages of the source.
What was measured:
[1] = Lewis acidity measuring method (1): reaction rate constant of reaction between CoTPP and oxygen in the presence of a Lewis acid; assay type: physicochemical
From the text: Chem. Soc. […] Specifically, the Lewis acidity can be measured by the following “Lewis acidity measuring method (1)”, which is herein incorporated by reference.
As to acetonitrile (MeCN) that contains cobalt tetraphenylporphyrin, saturated O2, and an object whose Lewis acidity is to be measured (e.g., a cation of a metal or the like, represented by M^n+ in the following chemical reaction formula (1a)) in the following chemical reaction formula (1a), the change of the ultraviolet-visible absorption spectrum is measured at room temperature. On the basis of the obtained reaction rate constant (kcat), the ΔE value (eV), which is an indicator of the Lewis acidity, can be calculated. The higher the kcat, the stronger the Lewis acidity. Furthermore, the Lewis acidity of an organic compound can be estimated from the energy level of the lowest unoccupied molecular orbital (LUMO) calculated by the quantum chemical calculation. The higher the value at the positive side, the stronger the Lewis acidity.
In the following table, the numerical value expressed in the unit “kcat, M^−2s^−1” is a reaction rate constant of a reaction between CoTPP and oxygen in the presence of a Lewis acid. The numerical value expressed in the unit “LUMO, eV” is the energy level of LUMO.

[2] = system: bacteria A (any one of Staphylococcus aureus, Escherichia coli MV1184, Streptococcus pyogenes, Streptcoccus mutans, Porphyromonas gingivalis, Treponema …); test: Bactericidal action on bacteria A-containing material (Experimental Example 1); assay type: cell-based; settings: chlorine dioxide generated by bringing ozone gas into contact with a radical source; cultured after contact

| Compound | kcat, reaction rate constant of reaction between CoTPP and oxygen in the presence of a Lewis acid [1] [M^−2 s^−1] | further results |
| --- | --- | --- |
| CC(C)(C)CC(C)(C)c1ccc(OCCOCC[N+](C)(C)Cc2ccccc2)cc1.[Cl-] [benzethonium chloride] | 0.24 |  |
| [O][Cl+][O-] [chlorine dioxide] |  | bactericidal effect on bacteria A [2]: exhibits a bactericidal effect |
| CCCC[N+](CCCC)(CCCC)CCCC.F[P-](F)(F)(F)(F)F [tetrabutylammonium hexafluorophosphate] | >0.1 |  |
| benzalkonium chloride |  | kcat, reaction rate constant of reaction between CoTPP and oxygen in the presence of a Lewis acid ([1]; acetonitrile, saturated O2, room temperature): 0.18 M^−2 s^−1 |
